The test deals with HCV genotype 1b. Kind of test: HCV 1b replicon luciferase assay. It counts as cell-based. The source says: A suitable 1b HCV RNA replicon assay uses the Huh7 cell line which contains an HCV 1b RNA replicon with a stable luciferase (LUC) reporter. This construct contains modifications that make the cell line more robust and provides stable LUC expression for antiviral screening. The LUC reporter is used as an indirect measure of HCV replication. The activity of the LUC reporter is directly proportional to HCV RNA levels and positive control antiviral compounds behave comparably using LUC endpoints. […]
Fresh growth medium is prepared just before use. The container used in the procedure is a 10 cm diameter culture dish. HCV replicon reporter cell lines are used. Prepare complete medium: add FBS and appropriate additives as described in “Culture Media”, below. Pre-warm the medium in a 37° C. thermostat water bath. Remove the dish from a 37° C. CO2 incubator. Check the cell name and complete medium and passage number marked on the dish. Aspirate the medium carefully and add 1 ml PBS to rinse the cells. Remove and discard the solution and add 1 ml of 0.25% Trypsin/0.02% EDTA. Rinse the cells with the added Trypsin/EDTA to ensure all the cells have been rinsed. Remove the Trypsin/EDTA with a vacuum pump and incubate at 37° C. for 3-5 minutes. Examine the cell morphology under an inverted microscope to confirm that a single cell suspension is clearly visible. Add 3 ml of complete medium to the dish and suspend the cell by gentle pipetting. Count the cell numbers with a hematometer. Adjust cell density to 100 k/ml by adding appropriate volume of the complete medium. Add 100 μl of cell suspension to each well of a 96-well white plate; the cell density is thus 10 k per well. Mark the plate with cell name, passage number, seeding density, date and the name of the operator. Place the 96-well assay plate in 37° C. 5% CO2 incubator for 24 hours.
Compounds are prepared or provided at 25 mM in 100% DMSO. This is the compound stock solution. The dilution procedure should be performed in a cell culture hood. Dispense the stock solution into the second column of a 96-well plate. Prepare 9-step (10 concentrations total), 5-fold serial dilutions by transferring 10 μA of the compound into the next well containing 40 μA of DMSO. Repeat for all compounds. Aspirate 2 μl of the above compound solution from each well and add into 198 μl complete media using a 12-channel pipetter to obtain the 10-fold concentration compound solution with 1% DMSO, mix well.
Remove the 96-well assay plate from the 37° C./5% CO2 incubator, examine the cell morphology under an inverted microscope. In a cell culture hood, add 10 μl of the 10× concentration compounds solution into each well on the 96-well assay plate. All compound's dose responses are done in duplicate. The starting final concentration of the compounds is 25 μM, and DMSO final concentration 0.1%. Mark the plate with compound code(s) and concentrations. Place the 96-well assay plate into CO2 incubator for 48 hours. Add 30 μl of Stead-Glo Luciferase System (Promega) reagent to each well and mix by gentle shaking on a plate shaker for 5 minutes to allow throughout cell lysis. Measure the luminescence with Envision (Perkin Elmer) with an integration time of 2 seconds. Record and analyze the data.
The cell culture media is DMEM complete: DMEM (Life Technologies #41965-039) supplemented with 10% FCS, 2 mM Glutamin (Life Technologies #25030-024), Penicillin (100 IU/ml)/Streptomycin (100 μg/ml) (Life Technologies #15140-114) and 1× nonessential amino acids (Life Technologies #11140-035). G418 (“Geneticin”, Life Technologies): concentrations are given as weight per volume of the original substance. Specific activity of a typical batch is ca. 700 μg/mg as stated by the manufacturer. […] Therefore each new batch of G418 should be tested individually e.g. in an electroporation experiment using different selection conditions (0.2-1 mg/ml).
In general terms: A replicon is a self-replicating genome or part of one, used to study replication in cells.

The mark [1] stands for this setting: Hepatitis C virus, Huh-7, 48 h, Table 1, Huh7 HCV 1b replicon, luciferase reporter, 48 hours, read-out: 1b EC50.
The mark [2] stands for this setting: Hepatitis C virus, 48 h, read-out: EC50 in the 48 hour 1b replicon assay, 48 hour.
[3] abbreviates: Table 1, Huh7 HCV 1b replicon, luciferase reporter, 48 hours, read-out: 1b EC50.

This note sets out measurements from patent publication US20120232062A1, “AZAINDAZOLES TO TREAT FLAVIVIRIDAE VIRUS INFECTION” (EIGER BIOPHARMACEUTICALS, INC., priority 2009, published 2012).

Like-named read-outs stand apart in the source and are kept apart here.

Usually EC50 stands for the midpoint of the concentration-response curve.

Turning to `CCC(CC)Oc1ccc2c(C(=O)NC3CCCNC3)n[nH]c2n1` (centres unmarked) [compound 725], the EC50 under setting [1] worked out at 7600 nM.

With `Cn1nc(C(=O)NC2CCNCC2)c2cc(NC3CCCCC3)cnc21` [compound 991], the EC50 under setting [1] was 9000 nM.

Consider `O=C(NC1CCCNC1)c1nn(Cc2ccc(Cl)cc2)c2nc(N3CCCCCC3)ccc12` (centres unmarked) [compound 705], for which the EC50 under setting [1] worked out at 2700 nM.

For `Cn1nc(C(=O)NC2CCN(CCCN3CCCCC3)CC2)c2ccc(N3CCCCCC3)nc21` [compound 1041], the EC50 under setting [1] came to 1100 nM.

For `Cn1nc(-c2cnc(C(=O)NC3CCCCC3)s2)c2ccc(N3CCCCCCC3)nc21` [compound 1254], the EC50 under setting [1] stood at 1400 nM.

For `CC1CCC(Oc2ccc3c(C(=O)NC4CCNCC4)nn(C)c3n2)C1` (centres unmarked) [compound 946], under setting [1], the EC50 amounted to 3700 nM.

With `Clc1ccc(Cn2nc(COCCCN3CCCCC3)c3ccc(N4CCCCCCC4)nc32)cc1` [compound 1205], under setting [1], the concentration for a half-maximal effect (EC50) was 4000 nM.

With `Cn1nc(C(=O)NC2CCNCC2)c2ccc(NC3CCCCCC3)nc21` [compound 866], the concentration for a half-maximal effect (EC50) under setting [1] was found to be 1100 nM.

With `Cn1nc(-c2cnc(C3CCN(CC(F)F)C3)s2)c2ccc(N3CCCCCCC3)nc21` (centres unmarked) [compound 1269], the EC50 under setting [1] came to 4600 nM.

Consider `Cn1nc(-c2cnc(C3CCN(CC4CCCCC4)C3)s2)c2ccc(N3CCCCCCC3)nc21` (centres unmarked) [compound 1268], for which the EC50 under setting [1] is 580 nM.

As to `Cn1nc(C(=O)NC2CCN(CC3CCCCC3)CC2)c2ccc(NC3CCCCCC3)nc21` [compound 1073], the EC50 under setting [1] came to 670 nM.

On to `Cn1nc(C(=O)NC2CCN(CCN3CC[C@@H](O)C3)CC2)c2ccc(N3CCCCCC3)nc21` [compound 1558], for which the concentration giving a half-maximal response (EC50) under setting [1] stood at 3400 nM.

For the compound `Cn1nc(NC(=O)CC2CCCNC2)c2ccc(N3CCCCCC3)nc21` (centres unmarked) [compound 843], the EC50 under setting [1] amounted to 8300 nM.

On to `Cn1nc(C(=O)NC2CCNCC2)c2ccc(N3CCCCCC3)nc21` [EBP697], for which the EC50 under setting [2] is less than 3000 nM.

For the compound `COc1cncc(-c2ccccc2COc2ccc3c(C(=O)NC4CCNCC4)nn(C)c3n2)c1` [compound 1119], the EC50 under setting [1] is 1500 nM.

For `C[C@@H]1CCCN1CCN1CCC(NC(=O)c2nn(C)c3nc(N4CCCCCC4)ccc23)CC1` [compound 1424], the concentration for a half-maximal effect (EC50) under setting [1] was found to be 790 nM.

As for `CCN(CC)c1ccc2c(C(=O)NC3CCNCC3)nn(C)c2n1` [compound 860], the EC50 under setting [1] was determined as 2900 nM.

Turning to `CN(c1ccc2c(C(=O)NC3CCN(CC4CCCCC4)CC3)nn(C)c2n1)C1CCCCCC1` [compound 1077], the half-maximal effective concentration (EC50) under setting [1] amounted to 1600 nM.

For `Cn1nc(C(=O)NC2CCNCC2)c2ccc(NCC3CCCCC3)nc21` [compound 863], the EC50 under setting [1] turned out to be 1300 nM.

As to `CCC(CC)Oc1ccc2c(NC(=O)[C@H]3CC[C@H](N)CC3)nn(C)c2n1` [compound 949], under setting [1], the EC50 stood at 5700 nM.

Regarding `Cn1nc(C(=O)NC2CCN(C(=O)C3CCCCC3)CC2)c2ccc(N3CCCCCC3)nc21` [compound 1030], under setting [1], the EC50 is 4800 nM.

On to `Cn1nc(-c2cnc(C(=O)NCC3CCCCC3)s2)c2ccc(N3CCCCCCC3)nc21` [compound 1251], for which, under setting [1], the EC50 was determined as 1000 nM.

`Cn1nc(NC(=O)C2CCCNC2)c2ccc(N3CCCCCC3)nc21` (centres unmarked) [compound 1036]: the EC50 under setting [1] stood at 8700 nM.

As for `COC[C@@H]1CCCN1c1ccc2c(C(=O)NC3CCNCC3)n[nH]c2n1` [compound 778], the EC50 under setting [1] is 17000 nM.

Consider `Cn1nc(C(=O)NCc2cccs2)c2cc(NC3CCCCC3)cnc21` [EBP1147], for which the EC50 under setting [2] was less than 3000 nM.

As to `CN(c1ccc2c(C(=O)NC3CCNCC3)nn(C)c2n1)C1CCCCCCC1` [compound 893], the half-maximal effective concentration (EC50) under setting [1] was 1100 nM.

Regarding `Cn1nc(-c2nnc(C3CCNC3)o2)c2ccc(N3CCCCCCC3)nc21` (centres unmarked) [compound 1363], the EC50 under setting [1] was found to be 2700 nM.

For `Cn1nc(-c2cnc(C(=O)NCC3CCCNC3)s2)c2ccc(N3CCCCCC3)nc21` (centres unmarked) [compound 1130], under setting [1], the EC50 was determined as 990 nM.

For the compound `Cn1nc(-c2nnc(C3CCCCN3CC3CCCCC3)o2)c2ccc(N3CCCCCCC3)nc21` (centres unmarked) [compound 1324], the EC50 under setting [1] came to 660 nM.

Take `Cn1nc(C(=O)NC2CCN(CC3CC3)CC2)c2ccc(N3CCCCCCC3)nc21` [compound 1300]: the EC50 under setting [3] was found to be 2700 nM.

`CCC(CC)Oc1ccc2c(NC(=O)c3ccc(C)s3)nn(C)c2n1` [compound 963]: the EC50 under setting [3] was 2700 nM.

Take `Cn1nc(-c2nnc(C3CCCN(CC4CCCCC4)C3)o2)c2ccc(N3CCCCCCC3)nc21` (centres unmarked) [compound 1272]: under setting [1], the EC50 is 940 nM.

Take `CCC(CC)Oc1ccc2c(NC(=O)[C@H]3CC[C@@H](N)CC3)nn(C)c2n1` [compound 951]: the EC50 under setting [1] was found to be 7800 nM.

As to `CC1CCC(C)N1CCCc1nn(C)c2nc(N3CCCCCCC3)ccc12` (centres unmarked) [compound 1462], the EC50 under setting [1] was determined as 1200 nM.

For `Cn1nc(C(=O)NC2CCN(CC3CCCCC3)CC2)c2ccc(NC3CCCCCCC3)nc21` [compound 1076], the EC50 under setting [1] is 600 nM.

Consider `Cn1nc(-c2cnc(C(=O)NC3CCCN(CC(F)F)C3)s2)c2ccc(N3CCCCCCC3)nc21` (centres unmarked) [compound 1322], for which the EC50 under setting [1] was found to be 1100 nM.

As to `Cn1nc(C(=O)NC2CCN(CC3CC3)CC2)c2ccc(NC3CCCCCCC3)nc21` [compound 1478], the EC50 under setting [1] amounted to 560 nM.

For the compound `Cn1nc(C(=O)NC2CCNCC2)c2ccc(OCc3ccccc3-c3ccc(Cl)cc3)nc21` [compound 1102], under setting [1], the EC50 turned out to be 620 nM.

Regarding `Cn1nc(-c2nnc(C3CCCCN3CCN3CCCCC3)o2)c2ccc(N3CCCCCCC3)nc21` (centres unmarked) [compound 1326], under setting [1], the EC50 was 4800 nM.

In the case of `Cn1nc(NC(=O)C2CCCCC2)c2ccc(N3CCCCCC3)nc21` [compound 835], the EC50 under setting [1] was found to be 2400 nM.

With `Cn1nc(-c2nnc(C3CCN(CC(F)F)C3)o2)c2ccc(N3CCCCCCC3)nc21` (centres unmarked) [compound 1366], under setting [1], the EC50 is 4000 nM.

In the case of `CC(C1CC1)N1CCC(NC(=O)c2nn(C)c3nc(N4CCCCCCC4)ccc23)CC1` (centres unmarked) [compound 1311], the EC50 under setting [1] came out at 970 nM.

In the case of `Cn1nc(C(=O)NC2CCN(CC3CC3)CC2)c2ccc(N3CCCCCCC3)nc21` [compound 1222], the concentration giving a half-maximal response (EC50) under setting [1] turned out to be 3200 nM.

As to `Cn1nc(-c2nnc(C3CCCNC3)o2)c2ccc(N3CCCCCCC3)nc21` (centres unmarked) [compound 1271], under setting [1], the EC50 is 3200 nM.

Regarding `CN(Cc1ccccc1)c1ccc2c(C(=O)NC3CCNCC3)n[nH]c2n1` [compound 777], the EC50 under setting [1] amounted to 2000 nM.

Consider `Cn1nc(C(=O)Nc2cc[nH]n2)c2ccc(N3CCCCCC3)nc21` [compound 827], for which the concentration for a half-maximal effect (EC50) under setting [1] turned out to be 3200 nM.

On to `Cn1nc(NC(=O)c2cccnc2)c2ccc(N3CCCCCC3)nc21` [compound 838], for which the EC50 under setting [1] worked out at 3800 nM.

With `Cn1nc(C(=O)NC2CCNCC2)c2ccc(OCc3ccccc3-c3cccs3)nc21` [compound 1101], the EC50 under setting [1] was 800 nM.

Take `Cn1nc(C(=O)NC2CCNCC2)c2ccc(N3CCCN(Cc4ccccc4)CC3)nc21` [compound 1049]: the EC50 under setting [1] came out at 6100 nM.

For `Cn1nc(C(=O)NC2CCNCC2)c2ccc(OC3CCCC3)nc21` [compound 912], the EC50 under setting [1] came out at 6900 nM.

As for `Cn1nc(C(=O)NC2CCNCC2)c2ccc(N3CCCCCCC3)nc21` [compound 886], the EC50 under setting [1] was found to be 798 nM.

For `O=C(N[C@H]1CCNC1)c1nn(Cc2ccc(Cl)cc2)c2nc(N3CCCCCC3)ccc12` [compound 707], the EC50 under setting [1] came out at 3300 nM.

With `O=C(NC1CCCNC1)c1n[nH]c2nc(OC3CCCCC3)ccc12` (centres unmarked) [compound 728], the half-maximal effective concentration (EC50) under setting [1] is 8000 nM.

On to `Cn1nc(C(=O)NC2CCNCC2)c2ccc(OCc3ccccc3)nc21` [compound 1051], for which the 50% effective concentration (EC50) under setting [1] came out at 2900 nM.

On to `Cn1nc(C(=O)NC2CCN(CC3CCCCC3)CC2)c2ccc(N(Cc3ccccc3)C3CCCCCC3)nc21` [compound 1184], for which, under setting [1], the EC50 is 168 nM.

With `O=C(NC1CCNCC1)c1nn(CC2CCCCC2)c2nc(N3CCCCCC3)ccc12` [compound 845], the EC50 under setting [1] was 2000 nM.
